For twelve compounds, GI50 and TGI results are on record in PubChem BioAssay (NCI).

Values joined by “and” are separate entries in the source; they are usually repeats but may differ in a detail not shown here. Equal values may be shown once.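 The compound was tested at five concentrations on cells cultured in 96-well plates, with a 48-hour exposure period. GI50: concentration for 50% inhibition of growth. TGI marks complete inhibition of growth.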

Holding throughout (experiment): inhibition of tumour cell growth, NCI panel, 48 h
Test [1] deals with HT29 colon.
Test [2] concerns COLO 205 colon.
The test system of test [3] is HCT-116 colon.
Test [4] deals with OVCAR-3 ovarian.
In test [5] the test system is U251 CNS.
Test [6] has as its system T-47D breast.
In test [7] the test system is DU-145 prostate.
The test system of test [8] is TK-10 renal.
In test [9] the test system is RPMI-8226 leukemia.
For test [10], the system named is HCT-15 colon.

Regarding `CC[n+]1c(/C=C/C=C2\N(C)c3ccccc3C2(C)C)sc2ccccc21`, the GI50 in test [1] was 4.74 µM; in test [2], 4.47 µM; in test [3], 4.15 µM; in test [4], 3.97 µM; in [5], 3.85 µM; in test [6], 4.65 µM. Moreover, the GI50 in [7] is 4.15 µM; in test [8], 5.06 µM; in test [9], 2.99 µM; in [10], 4.54 µM. The TGI in test [1] is 9.74 µM; in [2], 9.13 µM; in test [3], 8.16 µM; in [4], 7.52 µM; in [5], 7.61 µM; in test [6], 11.8 µM. Also, the TGI in [7] amounted to 7.76 µM; in test [8], 13.2 µM; in test [9], 10.1 µM; in test [10] it was 9.67 µM.
On to `Cn1cc(C2=C(c3cn(CCCCCSC(=N)N)c4ccccc34)C(=O)NC2=O)c2ccccc21`, for which the GI50 in test [1] is 1.11 µM; in test [2] it was 1.24 µM; in test [3], 1.08 µM; in test [4], 3.22 µM; in [5], 2.5 µM; in test [6], 3.46 µM. The GI50 in [7] was 3.58 µM; in [8] it was 2.66 µM; in [9], 4.13 µM; in test [10], 3.8 µM. The TGI in test [1] amounted to 4.03 µM; in [2] it was 4.68 µM; in test [3] it was 4.53 µM; in test [4], 6.55 µM; in test [5], 5.65 µM; in test [6], 9.63 µM. The TGI in [7] amounted to 6.93 µM; in [8] it was 5.71 µM; in [9] it was 9.61 µM; in [10], 8.03 µM.
For `O=C(Nc1nc2ccccc2s1)Nc1ccc([N+](=O)[O-])cc1Cl`, the GI50 is 7.3 µM in test [1]; 10.3 µM in test [2]; 2.12 µM in test [3]; 3.05 µM in test [4]; 2.13 µM in test [5]; 2.86 µM in test [6]. For the same compound, the GI50 is 3.08 µM in test [7], 3.18 µM in [8], 2.19 µM in test [9] and 3.05 µM in test [10]. Moreover, the TGI in [1] came to 21.9 µM; in [2], 32.9 µM; in [3], 4.54 µM; in test [4], 8.17 µM; in [5], 4.75 µM; in test [6], 11.7 µM. In addition, the TGI is 7.74 µM in [7], 7.87 µM in test [8], > 21 µM in [9] and 13 µM in [10].
As to `CC(=O)[O][Hg][c]1c(C)c(C)cc(C)c1C`, the GI50 in [1] was 1.6 µM; in test [2], 2.49 µM; in [3] it was 1.85 µM; in [4] it was 1.36 µM; in [5], 0.765 µM; in test [6], 1.68 µM. For the same compound, the GI50 in test [7] was 1.86 µM; in test [8], 1.86 µM; in test [9], 1.6 µM; in test [10], 1.49 µM. Also, the TGI in test [1] amounted to 6.31 µM; in test [2], 6.47 µM; in test [3] it was 3.66 µM; in [4], 2.71 µM; in test [5], 2.26 µM; in test [6], 4.79 µM. Besides, the TGI in [7] is 4.62 µM; in [8], 3.84 µM; in test [9], 6.11 µM; in test [10] it was 3.88 µM.
For the compound `Cc1cc([N+](=O)[O-])c2ccccc2[n+]1[O-]`, the GI50 is 0.066 µM and 0.0948 µM in [1]; 0.113 µM and 0.117 µM in [2]; 0.0472 µM and 0.0407 µM in test [3]; 0.392 µM and 0.319 µM in test [4]; 0.402 µM and 0.347 µM in test [5]; 0.385 µM and 0.534 µM in test [6]. For the same compound, the GI50 is 0.073 µM and 0.0815 µM in test [7]; 0.187 µM and 0.21 µM in test [8]; 0.0602 µM and 0.0308 µM in test [9]; 0.185 µM and 0.213 µM in test [10]. Also, the TGI in test [1] is 0.328 µM and 0.393 µM; in test [2], 0.338 µM and 0.319 µM; in test [3], 0.336 µM and 0.364 µM; in test [4] it was 1.71 µM and 1.25 µM; in test [5] it was 2.93 µM and 2.84 µM; in test [6] it was 3.23 µM and 4.89 µM. Further, the TGI in [7] was 0.325 µM and 0.564 µM; in [8], 0.541 µM and 0.623 µM; in test [9], 0.359 µM and 0.0948 µM; in test [10], 0.797 µM and 1.03 µM.
Turning to `O=S(=O)(c1cnccc1N1CCN(CCO)CC1)N1CCCC1`, the TGI in test [1], in test [2], in test [3], in test [4], in test [5] and in test [6] was > 100 µM throughout. The TGI in test [7], in [8], in [9] and in test [10] was > 100 µM in each case.
With `C#CCOc1ccc2ncnc(Nc3ccc(NC(=O)C=C)cc3)c2c1`, the GI50 was 30.6 µM in [1]; 15.6 µM in test [2]; 10.9 µM in [3]; 8.24 µM in test [4]; 79.3 µM in test [5]; 3.53 µM in test [6]. Further, the GI50 in test [7] was 25.4 µM; in test [8] it was 2.62 µM; in test [9] it was 2.63 µM; in test [10], 19.2 µM. In addition, the TGI was > 100 µM in [1]; 91.5 µM in [2]; 35.9 µM in test [3]; > 100 µM in test [4]; > 100 µM in [5]; > 100 µM in test [6]. Besides, the TGI was > 100 µM in [7], 9.03 µM in test [8], 7.44 µM in test [9] and > 100 µM in [10].
For `O=c1[nH]cnc2c1nnn2CCCCCCCCCCCCn1nnc2c(=O)[nH]cnc21`, the TGI was > 100 µM in test [1]; > 100 µM in test [2]; > 84.1 µM in test [3]; > 100 µM in [4]; 52.8 µM in test [5]; > 100 µM in test [6]. Further, the TGI in test [7] was > 100 µM; in test [8], 50.7 µM; in test [9], > 100 µM; in test [10], > 100 µM.
Consider `NS(=O)(=O)OCCCCCCCOS(N)(=O)=O`, for which the TGI in test [1] amounted to 1630 µM; in [2] it was 814 µM; in [3], 820 µM; in test [4], 835 µM; in test [5], 683 µM; in test [6], 1880 µM. Also, the TGI in test [7] was found to be 873 µM; in test [8] it was 1920 µM; in test [9], 1330 µM; in [10] it was 1190 µM.
Consider `COc1nnc2ccc(N3CCC(c4ccc(OCCN5CCN(C)C(=O)[C@H]5C)cc4)CC3)nn12`, for which the GI50 is 0.0392 µM in test [1]; 0.0553 µM in test [2]; 0.0723 µM in [3]; 0.0975 µM in [4]; 0.961 µM in test [5]; 0.0618 µM in test [6]. For the same compound, the GI50 in test [7] was 9.88 µM; in test [8], 0.0555 µM; in test [9], 0.0229 µM; in test [10], 0.0869 µM. For the same compound, the TGI is > 100 µM in test [1]; > 100 µM in test [2]; > 100 µM in test [3]; 53.1 µM in [4]; > 100 µM in test [5]; > 69.2 µM in test [6]. Moreover, the TGI is > 100 µM in test [7], > 70.2 µM in test [8], 54 µM in test [9] and > 100 µM in test [10].
As to `COc1cc(-c2nn(-c3cccc(NC(=O)c4ccc(Cl)c(C(F)(F)F)c4)c3)cc2-c2ccncc2)ccc1Cl`, the GI50 in test [1] is 3.33 µM; in [2], 3.5 µM; in test [3] it was 2.04 µM; in test [4] it was 1.43 µM; in [5] it was 2.39 µM; in test [6] it was 1.3 µM. Besides, the GI50 in test [7] was 5.46 µM; in test [8], 12.9 µM; in [9] it was 1.08 µM; in test [10] it was 3.15 µM. Also, the TGI was > 26.1 µM in test [1]; 17.6 µM in test [2]; > 32.5 µM in test [3]; 15.2 µM in test [4]; > 32.5 µM in test [5]; > 32.5 µM in test [6]. Besides, the TGI in test [7] is > 32.5 µM; in test [8], > 32.5 µM; in test [9] it was > 21.8 µM; in test [10], > 32.5 µM.
Consider `CN1CSC(=S)N(Cc2ccccc2)C1`, for which the GI50 is 3.36 µM in [1]; 15 µM in [2]; 4.49 µM in [3]; 3.96 µM in test [4]; 13.5 µM in test [5]; 4.78 µM in [6]. Further, the GI50 in test [7] was 2.05 µM; in test [8] it was 3.39 µM; in test [9], 5.54 µM; in [10] it was 4.74 µM. Besides, the TGI is 11.6 µM in test [1]; 32.3 µM in test [2]; 15.6 µM in test [3]; 15 µM in test [4]; 30.2 µM in test [5]; 23.4 µM in [6]. The TGI in test [7] is 6.21 µM; in [8], 9.41 µM; in test [9], 79.7 µM; in [10], 22 µM.
